Values quoted from earlier work, collected in PMC7235863, “Benzamide Derivatives Targeting the Cell Division Protein FtsZ: Modifications of the Linker and the Benzodioxane Scaffold and Their Effects on Antimicrobial Activity” (Antibiotics, 2020).
≈ marks a conversion by molar mass, not a printed value.

What was measured:
[1] = system: Methicillin Sensitive S. aureus; conditions: Methicillin Sensitive S. aureus; ref 10 (Z2, Z3), 11 (TXY436), 12 (I, II); cited from earlier work
E. coli WildType = system: E. coli WildType; design: method as in earlier work; conditions: ref 10 (Z2, Z3), 11 (TXY436), 12 (I, II); cited from earlier work
E. coli AcrAB– = conditions: ref 10 (Z2, Z3), 11 (TXY436), 12 (I, II); cited from earlier work
E. coli ATCC 25922 = system: E. coli ATCC 25922; design: method as in PMID 31750973; conditions: in-house reference compounds ref 12; cited from earlier work
ESBL E. coli = system: ESBL E. coli; design: method as in PMID 31750973; conditions: in-house reference compounds ref 12; cited from earlier work
E. coli N43 = system: E. coli N43; design: method as in PMID 31750973; conditions: E. coli N43 (AcrAB knockout); in-house reference compounds ref 12; cited from earlier work
Sa cells = system: Sa cells; design: method as in PMID 31750973; conditions: Sa cells incubated with the compounds ref 12; cited from earlier work
[2] = system: selected Gram-negative strains; design: method as in PMID 24637241; conditions: after genetic inactivation of AcrAB or its inhibition by PaβN ref 11; cited from earlier work

| Compound | MIC [1] [µg/mL] | MIC (E. coli WildType) [µg/mL] | MIC (E. coli AcrAB–) [µg/mL] | MIC (E. coli ATCC 25922) [µg/mL] | MIC (ESBL E. coli) [µg/mL] | MIC (E. coli N43) [µg/mL] | Morphometric analysis by TEM (Sa cells) | MIC [2] [µg/mL] |
| --- | --- | --- | --- | --- | --- | --- | --- | --- |
| CC[n+]1c(/C=C/N(C)c2ccccc2)n(-c2ccccc2)c2ccc(-c3nc4ccccc4s3)cc21 [Compound Z2] | 0.6 | 20 | 2.5 |  |  |  |  |  |
| CSc1nc(-c2ccc3c(c2)OC(COc2ccc(F)c(C(N)=O)c2F)CO3)no1 (stereo not drawn) [I] | 0.6 (≈ 1.38 µM) |  | 16 (≈ 36.7 µM) | >100 | >100 | 16 (≈ 36.7 µM) | significant elongation in cellular dimension, bacterial swelling and cell desegregation |  |
| CN(C)CNC(=O)c1c(F)ccc(OCc2nc3cc(Cl)cnc3s2)c1F [TXY436] | 1.0 (≈ 2.42 µM) |  | 8 (≈ 19.4 µM) |  |  |  |  | 8 (≈ 19.4 µM) |
